Assay results taken from article PMC8558867, “Development of BromoTag: A “Bump-and-Hole”–PROTAC System to Induce Potent, Rapid, and Selective Degradation of Tagged Target Proteins” (Journal of Medicinal Chemistry, 2021).
pEC50: −log10 of the molar value. Read-outs that look alike come from different tables or passages of the source.

What was measured:
[1] = system: Brd4^BD2 wild-type domain; set-up: method as in PMID 32756710; conditions: cited from earlier work
MV-4-11 cells = test: CellTiter-Glo 2.0 cell viability assay, MV-4-11; type: cell-based, human; conditions: Homo sapiens, MV4-11
Procedure: (§1) All cell lines were treated with compounds in duplicate (triplicate for DMSO controls) at a 1× concentration in 0.1% DMSO. The compounds were serially diluted to produce a 7-point, 10-fold titration. The cells were treated with 50:100 μL of compound for a final concentration of 10 μM:10 pM in 0.1% DMSO. At the point of spectrometric analysis, cells were treated with 100 μL of Promega CellTiter-Glo 2.0 Cell Viability Assay reagent. The plates were subjected to an orbital shaker for 2 min to encourage lysis and left for a further 5 min to reach peak luminescence. Luminescence was then recorded on a BMG Labtech PHERAstar luminescence plate reader with recommended settings. Data extracted from this analysis was analyzed with GraphPad Prism (v. 8.2.0, GraphPad) and normalized to the DMSO vehicle control. The EC50 values were derived from these plots.

22RV1 cells = test: CellTiter-Glo 2.0 cell viability assay, 22RV1; type: cell-based, human; conditions: Homo sapiens; 22RV1, 48 Hours, mean ±S.E.M, N = 2; read-out: pEC50 (cell viability) (converted)
Procedure: as §1

[2] = set-up: method as in earlier work; conditions: mice, cited from earlier work
HEK293 cells = test: CellTiter-Glo 2.0 cell viability assay, HEK293; type: cell-based, human; conditions: Homo sapiens; HEK293, 48 Hours, mean ±S.E.M, N = 3; read-out: pEC50 (cell viability) (converted)
Procedure: as §1

[3] = system: proteome of heterozygous BromoTag-Brd2 HEK293 cells; test: Multiplexed TMT labeling mass spectrometry proteomics; type: cell-based, human; conditions: 1 μM, 2 h
Procedure: To do this, we subjected our heterozygous BromoTag-Brd2 HEK293 cell line to a 1 μM treatment of 46, its non-degrading control 52, or vehicle (DMSO) for 2 h prior to harvest. The harvested lysate was then subjected to multiplexed tandem mass tag (TMT) labeling mass spectrometry to enable quantitative and unbiased analysis of protein levels in each condition.
CRISPR-modified BromoTag-Brd2 HEK293 cells (5 × 10^6) were seeded on a […] 24 h before treatment. The cells were treated with either DMSO, 1 μM AGB1, or 1 μM cis-AGB1. After 2 h of treatment, the cells were washed twice with PBS. The cells were lysed in 150 μL of 100 mM TEAB and 5% (w/v) sodium dodecyl sulfate. The lysate was sonicated for 10 s and then centrifuged at 15,000g for 5 min with the supernatant collected post-centrifugation. The samples were then quantified using a micro-BCA protein assay kit (Thermo Fisher Scientific); 300 μg of each sample was then reduced, alkylated, and then digested using the Strap mini protocol (protifi) as described by the manufacturer (protifi) with some modification. The samples were double-digested with trypsin (1:40) first overnight and then for another 6 h with the same ratio (1:40) in 50 mM TEAB buffer. The peptides were quantified using a quantitative fluorometric peptide assay (Thermo Fisher Scientific). […]

[4] = system: BET proteins: Brd2, Brd3, and Brd4; test: Single-concentration western blot screen, BET proteins; type: cell-based, human; conditions: 1 μM, 6 h
Procedure: With this initial library in hand, we set out to evaluate the activity and selectivity of our I-BET-based B&H–PROTACs by treating our heterozygous BromoTag-Brd2 HEK293 cells with 1 μM of compounds 15–17 or 1 μM of control compounds MZP-15 (14), MZ1 (1), and cis-MZ1 for 6 h, which is the sufficient time to achieve effective MZ1-induced BET protein degradation (Figure 4A). The cells were harvested, and the subsequent lysate was analyzed via western blot using antibodies against BET proteins: Brd2, Brd3, and Brd4 (Figure 4A).
All cells were harvested on ice with RIPA lysis and extraction buffer (Thermo Fisher Scientific, 89901) supplemented with protease inhibitor cocktail (Merck, 11697498001) and Benzonase Nuclease (Sigma, E1014) before being stored at −20 °C prior to use. Total protein quantity was determined using the BCA protein assay (#23225, Pierce, Rockford, Illinois). The protein concentration was determined using the BCA assay (Thermo Fisher Scientific, 23225). The samples were then prepared and loaded onto NuPAGE 4–12% bis–tris Midi gels (Thermo Fisher Scientific, WG1403A), followed by the transfer of proteins onto nitrocellulose membranes (EMD Millipore). […] All western blots were analyzed for band intensities using Image Lab from Bio-Rad (LI-COR, Biosciences). The data extracted from these blots were then plotted and analyzed using Prism (v. 8.2.0, GraphPad).

CC[C@@H](C(=O)OC)[C@@H]1N=C(c2ccc(Cl)cc2)c2c(sc(C)c2C)-n2c(C)nnc21 [ET-JQ1-OMe]
binding to the wild-type domain [1]: undetectable binding

Cc1ncsc1-c1ccc(CNC(=O)[C@@H]2C[C@@H](O)CN2C(=O)[C@@H](NC(=O)COCCOCCOCCNC(=O)C[C@@H]2N=C(c3ccc(Cl)cc3)c3c(sc(C)c3C)-n3c(C)nnc32)C(C)(C)C)cc1 [MZ1 (1)]
EC50 (MV-4-11 cells; MV-4-11, 24 Hours, mean ±S.E.M, N = 2, read-out: pEC50 (cell viability) (converted)): 25.1 nM
pEC50 (MV-4-11 cells; MV-4-11 cells, read-out: EC50 (cell viability)): ~7.70
EC50 (22RV1 cells): 5010 nM
T1/2 ([2]; IV (5 mg/kg), 5 mg/kg): 1.04 h
T1/2 ([2]; SC (5 mg/kg)): 2.95 h

CC[C@@H](C(=O)OCCOCCOCCOCC(=O)N[C@H](C(=O)N1C[C@@H](O)C[C@H]1C(=O)NCc1ccc(-c2scnc2C)cc1)C(C)(C)C)[C@@H]1N=C(c2ccc(Cl)cc2)c2c(sc(C)c2C)-n2c(C)nnc21 [cis-AGB1 (52), (S)-13-((2S,4S)-4-Hydroxy-2-((4-(4-methylthiazol-5-yl)benzyl)carbamoyl)pyrrolidine-1-carbonyl)-14,14-dimethyl-11-oxo-3,6,9-trioxa-12-azapentadecyl (R)-2-((S)-4-(4-chlorophenyl)-2,3,9-trimethyl-6H-thieno[3,2-f][1,2,4]triazolo[4,3-a][1,4]diazepin-6-yl)butanoate]
EC50 (HEK293 cells): > 10000 nM
proteins significantly degraded among the 6621 proteins quantified [3]: No significant degradation

COc1ccc2c(c1)C(c1ccc(Cl)cc1)=NC(CC(=O)NCCOCCOCCOCC(=O)N[C@H](C(=O)N1C[C@H](O)C[C@H]1C(=O)NCc1ccc(-c3scnc3C)cc1)C(C)(C)C)c1nnc(C)n1-2 (stereo partly drawn) [compound 14, (2S,4R)-1-((2S)-2-(tert-Butyl)-17-(6-(4-chlorophenyl)-8-methoxy-1-methyl-4H-benzo[f][1,2,4]triazolo[4,3-a][1,4]diazepin-4-yl)-4,16-dioxo-6,9,12-trioxa-3,15-diazaheptadecanoyl)-4-hydroxy-N-(4-(4-methylthiazol-5-yl)benzyl)pyrrolidine-2-carboxamide]
degradation activity across all the three BET family members relative to 1 [4]: significant lower activity
